Laboratory results as given in US8486991B2, “Enantiomerically pure phosphoindoles as HIV inhibitors” (Idenix Pharmaceuticals, Inc., priority 2006, dated 2013).
Entries after “also recorded” stand apart in the source; their conditions may differ. Like-named read-outs stand apart in the source and are kept apart here.

What was measured:
[1] = In vivo pharmacokinetics, monkeys; design: species or system monkey; settings: for bioavailability: read-out: BA (absolute oral bioavailability); for concentration at 24 h: 5 mg/kg oral dose, read-out: plasma concentrations at 24 hours post-dose
Description: All animals received a single oral or intravenous dose of compound in either polyethylene glycol 400 (PEG400) or a mixture of 10% ethanol (EtOH), 10% dimethylacetamine (DMA) and 80% PEG400 at the indicated dose level. Plasma concentration data were acquired using sensitive and specific LC-MS/MS methods. Pharmacokinetic data from the toxicity study included aspects of gender differences, variability and exposure.
Blood samples (1.5-2.5 mL) were collected in heparinized tubes at 0 (pre-dose), 5 (IV only), 10, 20, 30 min, 1, 2, 4, 6, 8, 12 (PO only) and 24 hr after dosing. Plasma was separated and stored at −70° C. until analysis.
Concentrations of unlabeled compound I and compound III within plasma samples and excreta from rat, dog and monkey PK studies were identified through high performance liquid chromatographic (HPLC) methods that incorporated tandem mass spectrometric detection (LC-MS/MS).
The absolute oral bioavailability was determined in pharmacokinetic by comparison of AUC values of parent compound following single intravenous and oral doses of in rats (compound III only), dogs and monkeys.

[2] = test system: CYP3A4 (activation of PXR in DPX2 cells); test: CYP3A4 induction screen in DPX2 cells; format: cell-based, human; settings: extent compared with rifampicine, mifepristone, androstanol
Description: The potential for in vitro induction of CYP3A4 was screened in DPX2 cells. The DPX2 cell line is a derivative of a human hepatocellular carcinoma cell line (HepG2) transformed with the human pregnane x receptor (PXR) and a reporter gene vector containing the enhancer region of CYP3A4. The potential for in vitro induction of CYP1A2 was screened in CYP1A2-DRE cells. The CYP1A2-DRE cell line is a stably transformed HepG2 cells with dioxin response elements (DRE) and reporter gene containing CYP1A2 promoter elements. The extent of CYP3A4 induction was determined by comparing the activation of PXR obtained with test article to that obtained with rifampicine (potent inducer), mifepristone (moderate inducer) and androstanol (weak inducer). The extent of CYP1A2 induction was determined by comparing the activation of the aryl hydrocarbon receptor (AhR) obtained with test article to that obtained with TCDD (potent inducer), omeprazole (moderate inducer), and 2-acetylaminofluorene (weak inducer).

[3] = Compound depletion in hepatocytes, dog; format: in vitro ADME; settings: up to 2 hours, read-out: t½, Compound Depletion in Hepatocytes, Dog
Description: Fresh hepatocytes were plated onto collagen-coated plates and exposed to test compounds at 1 μM for up to 2 hours. Tissue culture medium was assayed for compound depletion by LC/MS detection. Values in Table 23 represent independent experiments from 5 to 7 donors.

[4] = target: T1, HIV-1 RT V106M mutant enzyme (Human immunodeficiency virus type 1 group M subtype B, UniProt P03366, V705M); test: biochemical; settings: for Average Fold Changes ± Standard Deviation, V106M: Table 4
T1 construct: Antiviral in vitro activity against site-directed mutant HIV-1 RT enzymes
Description: (§1) In Vitro Antiviral Activity Against Additional Mutant HIV RT Enzymes
(§2) The studies are summarized in the text that follows.

[5] = target: T2, HIV-1 RT Y188L mutant enzyme (Human immunodeficiency virus type 1 group M subtype B, UniProt P03366, Y787L); test: biochemical; settings: for Average Fold Changes ± Standard Deviation, Y188L: Table 4
T2 construct: Antiviral in vitro activity against site-directed mutant HIV-1 RT enzymes
Description: as §1, §2

[6] = target: T3, HIV-1 RT L1001/K103N (L100I/K103N) mutant enzyme (Human immunodeficiency virus type 1 group M subtype B, UniProt P03366, K702N/L699I); test: biochemical; settings: for Average Fold Changes ± Standard Deviation, L1001/K103N: Table 4
T3 construct: Antiviral in vitro activity against site-directed mutant HIV-1 RT enzymes
Description: as §1, §2

[7] = target: T4, HIV-1 RT L1001 (L100I) mutant enzyme (Human immunodeficiency virus type 1 group M subtype B, UniProt P03366, L699I); test: biochemical; settings: for Average Fold Changes ± Standard Deviation, L1001: Table 4
T4 construct: Antiviral in vitro activity against site-directed mutant HIV-1 RT enzymes
Description: as §1, §2

[8] = target: T5, HIV-1 RT E138K mutant enzyme (Human immunodeficiency virus type 1 group M subtype B, UniProt P03366, E737K); test: biochemical; settings: for Average Fold Changes ± Standard Deviation, E138K: Table 4
T5 construct: Antiviral in vitro activity against site-directed mutant HIV-1 RT enzymes
Description: as §1, §2

[9] = target: T6, HIV-1 RT V1081 (V108I) mutant enzyme (Human immunodeficiency virus type 1 group M subtype B, UniProt P03366, V707I); test: biochemical; settings: for Average Fold Changes ± Standard Deviation, V1081: Table 4
T6 construct: Antiviral in vitro activity against site-directed mutant HIV-1 RT enzymes
Description: as §1, §2

[10] = target: T7, HIV-1 RT M184V mutant enzyme (Human immunodeficiency virus type 1 group M subtype B, UniProt P03366, M783V); test: biochemical; settings: for Average Fold Changes ± Standard Deviation, M184V: Table 4
T7 construct: Antiviral in vitro activity against site-directed mutant HIV-1 RT enzymes
Description: as §1, §2

[11] = Plasma protein binding by equilibrium dialysis, rat; format: in vitro ADME; settings: for fraction unbound: rat, read-out: Percentage Plasma Protein Binding, Rats
Description: The in vitro plasma protein binding of compound I and compound III in rat, dog, monkey and human plasma was determined by equilibrium dialysis. Protein binding was assessed by equilibrium dialysis using rat, dog, monkey and human plasma. Samples were assayed by HPLC with LC-MS/MS detection. Plasma protein binding was high (>99%) for all species and for both compounds.

CYP1A2 = target: T8, CYP1A2 (Homo sapiens, UniProt P05177); test: Recombinant CYP450 inhibition, fluorometric, CYP1A2; format: in vitro ADME; design: from tissue; host or cells: pooled human liver microsomes
T8 sequence (P05177 1-516): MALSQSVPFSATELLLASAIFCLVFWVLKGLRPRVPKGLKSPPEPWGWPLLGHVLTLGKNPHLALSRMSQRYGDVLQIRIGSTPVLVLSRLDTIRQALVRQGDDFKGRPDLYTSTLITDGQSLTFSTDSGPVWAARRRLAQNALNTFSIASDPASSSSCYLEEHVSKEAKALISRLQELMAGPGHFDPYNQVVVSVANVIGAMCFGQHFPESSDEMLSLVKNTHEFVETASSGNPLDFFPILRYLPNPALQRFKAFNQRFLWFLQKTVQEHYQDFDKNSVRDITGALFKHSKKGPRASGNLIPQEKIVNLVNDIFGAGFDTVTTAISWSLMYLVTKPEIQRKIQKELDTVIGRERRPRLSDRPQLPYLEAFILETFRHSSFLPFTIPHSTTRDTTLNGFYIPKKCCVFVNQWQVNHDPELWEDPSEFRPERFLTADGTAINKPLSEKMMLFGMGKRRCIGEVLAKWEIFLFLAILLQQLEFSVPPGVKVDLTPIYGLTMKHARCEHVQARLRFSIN
Description: Compounds were assayed using recombinant human microsomal proteins with fluorometric substrates. Signal was measured with a Fusion plate reader utilizing the appropriate excitation and emission wavelength set to detect the specific metabolite: […]

SMILES: CO[P@](=O)(c1cc(C)cc(/C=C/C#N)c1)c1c(C(N)=O)[nH]c2ccc(Cl)c(F)c12 [Compound I, (2-Carbamoyl-5-chloro-4-fluoro-1H-indol-3-yl)-[3-((E)-2-cyano-vinyl)-5-methyl-phenyl]-(R)-phosphinic acid methyl ester]
- bioavailability in males based on AUC values, excluding one animal ([1]; Monkey, 5 mg/kg oral): 75%
- Tmax ([1]; female, monkey, in vivo, po, 5 mg/kg, 5 mg/kg PO-Fed, 3F, median): 4 h
- bioavailability ([1]; female, monkey, in vivo, po, 5 mg/kg, Monkey, 5 mg/kg PO-Fed, 3F (females)): 61%
- concentration at 24 h ([1]; in vivo, monkey): 17.9 ng/mL
- Tmax ([1]; male, monkey, in vivo, po, 5 mg/kg, 5 mg/kg PO-Fed, 3M, median): 4 h
- Tmax ([1]; male, monkey, in vivo, po, 5 mg/kg, 5 mg/kg PO-Fed, males (3M or 2M), mean): 2.7 h
- bioavailability ([1]; male, monkey, in vivo, po, 5 mg/kg, Monkey, 5 mg/kg PO-Fed, 3M (males)): 54%
- bioavailability ([1]; male, monkey, in vivo, po, 5 mg/kg, Monkey, 5 mg/kg PO-Fed, males (3M or 2M), exploratory study): 58%
- Induction, DPX2 (CYP3A4) [2]: moderate inducers; also recorded: Moderate (n = 2)
- half-life at 1 μM ([3]; hepatocytes): 28 ± 14 min
- IC50 [4]: 230 ± 60 nM
- Average Fold Changes ± Standard Deviation, V106M [4]: 1.2 ± 0.5 fold
- IC50 [5]: 1250 ± 380 nM
- Average Fold Changes ± Standard Deviation, Y188L [5]: 6.0 ± 1.7 fold
- IC50 [6]: 430 ± 330 nM
- Average Fold Changes ± Standard Deviation, L1001/K103N [6]: 2.4 ± 1.2 fold
- IC50 [7]: 160 ± 30 nM
- Average Fold Changes ± Standard Deviation, L1001 [7]: 0.5 ± 0.2 fold
- IC50 [8]: 4.67 ± 0.91 µM
- Average Fold Changes ± Standard Deviation, E138K [8]: 15.5 ± 6.8 fold
- IC50 [9]: 1200 ± 710 nM
- Average Fold Changes ± Standard Deviation, V1081 [9]: 4.0 ± 5.3 fold
- IC50 [10]: 290 ± 80 nM
- Average Fold Changes ± Standard Deviation, M184V [10]: 1.7 ± 0.5 fold
- Percentage Plasma Protein Binding, Rats [11]: 99.1%
- fraction unbound ([11]; plasma): < 0.01
- inhibition at 20 µM (CYP1A2; human, recombinant enzyme, 20 μM, read-out: percentage of inhibition at the highest concentration tested, CYP1A2): 17.5%

SMILES: CO[P@](=O)(c1cc(C)cc(/C=C/C#N)c1)c1c(C(N)=O)[nH]c2ccc(Cl)cc12 [Compound III, (2-Carbamoyl-5-chloro-1H-indol-3-yl)-[3-((E)-2-cyano-vinyl)-5-methyl-phenyl]-(R)-phosphinic acid methyl ester]
- Tmax ([1]; female, monkey, plasma, po, 5 mg/kg, 5 mg/kg PO-Fed, 3F, median): 2 h
- bioavailability ([1]; female, plasma, Monkey, 5 mg/kg PO-Fed, 3F (females)): 76%
- Tmax ([1]; male, monkey, plasma, po, 5 mg/kg, 5 mg/kg PO-Fed, 3M, median): 2 h
- Tmax ([1]; male, monkey, plasma, po, 5 mg/kg, 5 mg/kg PO-Fed, males (3M or 2M), mean): 3 h
- Tmax ([1]; male, monkey, plasma, po, 20 mg/kg, 20 mg/kg PO-Fed, 2M, mean): 2.5 h
- bioavailability ([1]; male, plasma, Monkey, 5 mg/kg PO-Fed, 3M (males)): 42%
- bioavailability ([1]; male, plasma, Monkey, 20 mg/kg PO-Fed, 2M): 61%
- concentration at 24 h ([1]; plasma, monkey): 12 ng/mL
- Induction, DPX2 (CYP3A4) [2]: moderate inducers; also recorded: Moderate (n = 2)
- half-life at 1 μM ([3]; fresh hepatocytes plated on collagen-coated plates): 21 ± 10 min
- IC50 [4]: 200 ± 60 nM
- Average Fold Changes ± Standard Deviation, V106M [4]: 1.0 ± 0.3 fold
- IC50 [5]: 1150 ± 360 nM
- Average Fold Changes ± Standard Deviation, Y188L [5]: 7.0 ± 5.9 fold
- IC50 [6]: 400 ± 260 nM
- Average Fold Changes ± Standard Deviation, L1001/K103N [6]: 1.8 ± 0.8 fold
- IC50 [7]: 130 ± 60 nM
- Average Fold Changes ± Standard Deviation, L1001 [7]: 0.6 ± 0.6 fold
- IC50 [8]: 2.99 ± 0.18 µM
- Average Fold Changes ± Standard Deviation, E138K [8]: 13.7 ± 1.9 fold
- IC50 [9]: 830 ± 350 nM
- Average Fold Changes ± Standard Deviation, V1081 [9]: 3.8 ± 3.8 fold
- IC50 [10]: 170 ± 80 nM
- Average Fold Changes ± Standard Deviation, M184V [10]: 0.8 ± 0.3 fold
- Percentage Plasma Protein Binding, Rats [11]: 99.4%
- fraction unbound ([11]; rat plasma): < 0.01
- IC50 (CYP1A2; highest concentration tested 20 μM): 17.6 ± 2.06 µM
